# From patent US12343396B2, “Ultrasound mediated delivery of drugs” (EXACT THERAPEUTICS AS, priority 2013, dated 2025)
# Like-named read-outs stand apart in the source and are kept apart here.
# Legend:
# [1] = cited from earlier work; for vapour pressure (v.p.): at 20° C.; for Log wsol (water solubility): logarithm of Molar solubility
# [2] = Microscopy scoring of spontaneously and US activated bubbles; format: physicochemical; design: key: Score 0 = no or very limited; Score 1 = medium and; Score 2 = high; details: oil as C2 microdroplet phase mixed with C1, 37° C.; for Spont. Act. (amount of spontaneously activated bubbles): bubbles >~15 μm; for US Act. (amount of US activated bubbles): insonated 5 s, nominal MI 0.8, 2.25 MHz
# Description: 641 mg distearoylphosphateidylcholine (DSPC) and 73 mg 1,2-distearoyl-3-(trimethylammonio) propane chloride (DSTAP) were weighed into a 250 mL round bottom flask and 50 ml chloroform was added. The sample was heated under hot tap water until a clear solution was obtained. The chloroform was removed by evaporation to dryness on a rotary evaporator at 350 mm Hg and 40° C., followed by further drying at 50 mm Hg in desiccator over night. Thereafter, 143 mL water was added and the flask again placed on a rotary evaporator and the lipids were rehydrated by full rotational speed and 80° C. water bath temperature for 25 minutes. The samples were placed in refrigerator over night. The lipid dispersion was transferred to a suitable vial and stored in refrigerator until use.
# Emulsions were prepared by transferring aliquots of 1 mL of the cold lipid dispersion to 2 mL chromatography vials. To each of seven vials was added 100 μL of the fluorocarbon oils as detailed in Table 11. The chromatography vials were shaken on a CapMix (Espe, GmbH) for 75 seconds. The vials were immediately cooled in ice, pooled and kept cold until use. Coulter counter analysis was performed to determine the volume concentration of the microdroplets and the emulsions were then diluted with water to 10 μl/mL disperse phase.
# C1 (as detailed in E1-2) was reconstituted in 2 mL of water and mixed together with the C2 samples prepared in a 10 ml tube to a ratio of 10:1 and shaken carefully by hand. The mixture was then diluted with 7 mL water. The samples were evaluated for spontaneously activated and US activated bubbles by microscopy in manual version of the methodology described in E1-4. One mL of this solution was transferred to a microscope cell where the temperature was stabilised to 37° C. after 2 minutes. The cell was set up so that US sonication, using an ATL 3-2 transducer with a center frequency of 2.25 MHZ, could be applied to the sample. At 200× magnification the entire cell area was scanned and the content of large (>˜15 μm), spontaneously activated bubbles was semi quantitatively assessed by visual inspection. For each sample, a score in the range of 0 to 2 was given, where 0 designate “no or very few large phase shift bubbles observed”, 1 designate “medium number of large phase shift bubbles observed” and 2 designate “large number of large phase shift bubbles observed”. The sample was then insonated for 5 s at a nominal MI of 0.8 and the content of large, US activated bubbles were counted and scored in the same manner. The results from this study is detailed in Table 11 together with the physicochemical characteristics of the compounds investigated.
# physchem = details: for Miscibility in tCIMe: solvents; for solubility: organic solvent or mixture
# Description: As a starting-point for the study on drug loading, a theoretical evaluation of solubility of different solutes (drugs and chromophores for optical imaging) in pFMCP and a range of other oil components was performed. This evaluation was performed using a state-of-the-art software for assessment of solvent-solute compatibility; Hansen solubility parameters, HSPiP v.4 (Steven Abbott TCNF Ltd.). The HSPIP analysis calculates three basic properties relating to compatibility between substances; Polarity, Dispersion and Hydrogen binding and a distance in this three dimensional space between e.g. a solvent and a solute; the Hansen distance (Hd). The closer the solvent and solute are in this space, the (relatively) better the solubility of the solute in the solvent. […] The miscibility between the solvent and the solubility of the solutes in one of the solvents were experimentally determined.
# In addition, a 1:1:2 mixture of said three solvents loaded with Ptx was explored. […] C2 with a 1:1:1 mixture of these components was manufactured as detailed below.
Compound,vapour pressure (v.p.) [1] [torr],Log wsol (water solubility) [1],Spont. Act. (amount of spontaneously activated bubbles) [2],US Act. (amount of US activated bubbles) [2],other results
Perfluorodimethylcyclobutane,579,−5.7,0,1,–
dichlorodifluoroethane [dCldFEt],–,–,–,–,"miscibility in pFMCP, dClMe and tClMe (physchem): completely miscible"
CCCCCCCCCCCCCCCCCCN1C(=CC=CC=CC=CC2=[N+](CCCCCCCCCCCCCCCCCC)c3ccccc3C2(C)C)C(C)(C)c2ccccc21.[I-] [DiR],–,–,–,–,"solubility in solvent mixture (physchem; 1:1:1 mixture of pFMCP, ClrFPr and pFMCP): > 10 mg/mL; Solubility in tCIMe (physchem; target molecules): ~50 mg/mL"
"ClCCl [dCIMe, dichloromethane]",–,–,–,–,miscibility in pFMCP (physchem): ~10%; Miscibility in tCIMe (physchem): 100%; Log wsol (water solubility) ([1]; solvents): −0.8
"FC(C(F)C(F)(F)C(F)(F)F)C(F)(F)F (stereo not shown) [2H,3H-perfluoropentane]",431.8,−3.2,1,0,–
FC(F)(F)C(F)(F)C(F)(F)C(F)(F)C(F)(F)C(F)(F)F [Perfluorohexane],359.2,−6.7,0,1,–
"C=CC(F)(F)C(F)(F)C(F)(F)C(F)(F)F [1H, 1H,2H-perfluoro-1-hexene]",353.1,−4.6,1,1,–
CC(=O)O[C@@]12CO[C@@H]1C[C@H](O)[C@@]1(C)C(=O)[C@H](O)C3=C(C)[C@@H](OC(=O)[C@H](O)[C@@H](NC(=O)OC(C)(C)C)c4ccccc4)C[C@@](O)([C@@H](OC(=O)c4ccccc4)[C@H]21)C3(C)C [Docetaxel],–,–,–,–,solubility (physchem; Solubility in tCIMe): ~20 mg/mL
chlorotrifluoropropane [CltFPr],–,–,–,–,"miscibility in pFMCP, dClMe and tClMe (physchem): completely miscible; Miscibility in tCIMe (physchem): 100%; Log wsol (water solubility) ([1]; solvents): −2.4"
CN(C)C/C=C/C(=O)Nc1cc2c(Nc3ccc(F)c(Cl)c3)ncnc2cc1O[C@H]1CCOC1 [Afatinib],–,–,–,–,solubility (physchem; Solubility in tCIMe): ~100 mg/mL
CCN(CC)c1ccc2nc3c4ccccc4c(=O)cc-3oc2c1 [Nile Red],–,–,–,–,solubility (physchem; Solubility in tCIMe): ~50 mg/mL; solubility (physchem; solubility in solvent mixture): > 5 mg/mL
"1,1,2,3,3,3-Hexafluoropropyl methyl",418.8,−2.5,2,0,–
COc1cccc2c1C(=O)c1c(O)c3c(c(O)c1C2=O)C[C@@](O)(C(=O)CO)C[C@@H]3O[C@H]1C[C@H](N)[C@H](O)[C@H](C)O1 [Doxorubicin],–,–,–,–,"solubility (physchem; trichloromethane (tClMe), Solubility in tCIMe, target molecules): ~1 mg/mL"
CCS(=O)(=O)Nc1ccc2c(c1)/C(=C(/Nc1ccc(CN3CCCCC3)cc1)c1ccccc1)C(=O)N2 [Hesperadin],–,–,–,–,solubility (physchem; Solubility in tCIMe): ~7.5 mg/mL
"Methyl-1,1,2,2-tetrafluoroethyl ether",842.4,−1.4,2,0,–
FC(F)C(F)(F)C(F)(F)C(F)(F)C(F)(F)C(F)(F)F [1H-perfluorohexane],238.6,−5.3,1,1,–
FC(F)(F)C(F)(F)C(F)(F)C(F)(F)C(F)(F)C(F)(F)C(F)(F)F [Perfluoroheptane],–,–,0,2,–
CC(=O)O[C@H]1C(=O)[C@@]2(C)[C@H]([C@H](OC(=O)c3ccccc3)[C@]3(O)C[C@H](OC(=O)[C@H](O)[C@@H](NC(=O)c4ccccc4)c4ccccc4)C(C)=C1C3(C)C)[C@]1(OC(C)=O)CO[C@@H]1C[C@@H]2O [Paclitaxel],–,–,–,–,solubility in solvent mixture (physchem): > 50 mg/mL; solubility (physchem; Solubility in tCIMe): ~350 mg/mL; solubility (physchem; solubility in solvent mixture): > 25 mg/mL
"FC(F)(F)C1(F)C(F)(F)C(F)(F)C(F)(F)C1(F)F [pFMCP, perfluoromethyl-cyclopentane]",–,–,0,1,Miscibility in tCIMe (physchem): ~10%
"2,2,3,3,3-Pentafluoropropyl methyl",559.6,−2.0,1,0,–
